Here are results for 18 compounds from US20110201629A1, “CYCLOHEXYL AMIDE DERIVATIVES AS CRF RECEPTOR ANTAGONISTS” (priority 2010, published 2011).

As a reminder, the IC50 is the concentration needed to halve the response being measured. Low readings indicate inhibition by little substance, high ones a need for much substance.

In one assay the target is T1, CRF-2 (UniProt Q13324).
T1 sequence (Q13324 1-411): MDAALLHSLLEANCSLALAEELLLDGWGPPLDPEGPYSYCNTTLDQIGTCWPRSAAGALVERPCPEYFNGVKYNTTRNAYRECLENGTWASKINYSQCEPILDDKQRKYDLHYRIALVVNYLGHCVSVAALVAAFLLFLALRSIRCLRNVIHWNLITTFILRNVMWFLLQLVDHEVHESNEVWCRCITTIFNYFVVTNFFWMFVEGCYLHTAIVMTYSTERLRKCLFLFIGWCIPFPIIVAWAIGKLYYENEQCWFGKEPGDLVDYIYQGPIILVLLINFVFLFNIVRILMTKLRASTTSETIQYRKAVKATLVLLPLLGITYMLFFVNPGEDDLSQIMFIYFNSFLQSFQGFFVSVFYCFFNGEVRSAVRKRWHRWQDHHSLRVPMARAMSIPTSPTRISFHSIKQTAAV
Put plainly: CRF-2 receptor antagonism, HTRF cAMP assay in CHO cells. The format is cell-based, human. Conditions: Biological data Table 2; inhibition of CRF induced cAMP response in CHO cells, EC50 concentration of CRF. How it is done: (§1) The CRF-1 and CRF-2 receptor antagonistic activity of the agents of the invention has been determined in vitro in the following assay:
(§2) Chinese hamster ovary (CHO) cells expressing either the human or rat recombinant CRF-1 or human CRF-2α (Chen et al, Proc Natl Acad Sci USA 90, 8967-8971, 1993; Liaw et al, Endocrinology 137, 72-77, 1996) are propagated in Dulbecco's modified Eagle medium supplemented with 10% foetal calf serum, non-essential amino acids, 100 U/ml penicillin, 100 mg/l streptomycin and 1 g/l geneticin. CHO cells expressing the rat CRF-2β receptor (Wu et al, Endocrinology 148, 1675-1687, 2007) are propagated in HAM's-F12 Glutamax supplemented with 10% foetal calf serum, 100 IU/ml penicillin, 100 mg/l streptomycin, 600 μg/ml hygromycin, 10 μg/ml blasticidin and induced with 1 μg/ml of tetracyclin for 24 hours prior to experimentation. For cyclic AMP determinations the Homogeneous Time-Resolved Fluoresce (HTRF) cAMP dynamic 2 kit (Cisbio International, France) was used as per manufacturers' instructions. CHO cells, previously cryopreserved at 3×10^6 viable cells per ml of cell recovery media (Cat no. 12648-010, Invitrogen), were thawed, centrifuged for 7 mins at 1200 rpm and resuspended in serum free media to give a concentration of 0.5×10^6 cells per/ml. Compounds of the invention, prepared in DMSO, and subsequently diluted 50 fold in assay buffer (1× Hanks balanced salt solution, 0.2% (w/v) bovine serum albumin, 1.7 mM isobutylmethylxanthine and 10 mM Hepes, pH7.4) were then added onto the 384 well low volume black assay plate (Corning Inc, US, Cat. 3676). 2000 cells/well were then added to the assay plate further diluting the compound 2 fold and then the plate was incubated for 15 mins at room temperature. Following incubation, buffer containing a 5 times final concentration of agonist, typically r/h CRF is added to the plate and incubated for 30 min at room temperature. Finally, d2 dye labeled cAMP and cryptate labeled anti-cAMP antibody, both made in lysis buffer, are added to the plate followed by a settling period of 1 hour at room temperature. During the settling period cAMP produced by the cells competes with the d2 labelled cAMP for the anti-cAMP cryptate. The plate is read on the Pherastar (BMG, Germany). Increasing levels of endogenous cAMP produced by cells can be followed by a decrease of FRET fluorescent signal and vice versa. Values represented by a change in arbitrary fluorescence units are converted into cAMP concentrations by use of a standard curve, the reagents for which are supplied with the kit. Antagonist dose response curves (1 nM-31.6 μM) are constructed and tested in the presence of an EC50 concentration of CRF relevant to the receptor (hCRF-1=3 nM, hCRF-2α=2 nM, rCRF-1=1 nM and rCRF-2β=0.1 nM). IC50 values of antagonists are calculated by fitting the percent inhibition of CRF induced cAMP response by increasing concentrations of the antagonists. The fit is performed using the nonlinear logistic function of the Activitybase software package v 5.4.5.27 (IDBS, UK).
Background: In TR-FRET formats the signal depends on donor and acceptor labels being close together.

The next assay addresses T2, CRF-1 (UniProt P34998).
T2 sequence (P34998 1-415): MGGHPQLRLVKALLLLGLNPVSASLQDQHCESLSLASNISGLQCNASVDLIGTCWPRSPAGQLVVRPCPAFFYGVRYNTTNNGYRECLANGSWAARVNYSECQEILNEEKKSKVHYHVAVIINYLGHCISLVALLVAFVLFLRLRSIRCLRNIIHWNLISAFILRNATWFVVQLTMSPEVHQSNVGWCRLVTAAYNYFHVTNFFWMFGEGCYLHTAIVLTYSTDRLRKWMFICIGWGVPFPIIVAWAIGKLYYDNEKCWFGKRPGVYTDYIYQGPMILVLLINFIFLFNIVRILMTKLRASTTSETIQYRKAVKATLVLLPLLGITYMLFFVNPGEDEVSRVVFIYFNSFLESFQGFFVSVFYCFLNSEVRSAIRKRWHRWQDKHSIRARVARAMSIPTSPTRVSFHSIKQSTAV
Put plainly: CRF-1 receptor antagonism, HTRF cAMP assay in CHO cells. The format is cell-based, human. Conditions: Biological data Table 2; inhibition of CRF induced cAMP response in CHO cells, EC50 concentration of CRF. How it is done: as §1, §2

Consider `Cc1ncc(Cl)cc1C(=O)N[C@H]1CC[C@H](CN2C(=O)C(C)(F)c3ccc(Cl)cc32)CC1` (single isomer, unassigned) [Example 2.33, Trans-5-Chloro-N-[4-(-6-chloro-3-fluoro-3-methyl-2-oxo-2,3-dihydro-indol-1-ylmethyl)-cyclohexyl]-2-methyl-nicotinamide], for which the IC50 on CRF-2 came to 0.876 µM; against CRF-1, 0.044 µM.
`Cc1cc2c(cc1C)C(C)(F)C(=O)N2C[C@H]1CC[C@H](NC(=O)c2cc(Cl)cnc2C)CC1` (single isomer, unassigned; enantiomer 1) [Example 2.54, Enantiomer 1 of Trans-5-Chloro-N-[4-(3-fluoro-3,5,6-trimethyl-2-oxo-2,3-dihydro-indol-1-ylmethyl)-cyclohexyl]-2-methyl-nicotinamide]: the IC50 turned out to be 4.76 µM against CRF-2 and 0.059 µM against CRF-1.
Take `Cc1cc2c(cc1C)C(C)(F)C(=O)N2C[C@H]1CC[C@H](NC(=O)c2cc(Cl)cnc2C)CC1` (single isomer, unassigned; enantiomer 2) [Example 2.55, Enantiomer 2 of Trans-5-Chloro-N-[4-(3-fluoro-3,5,6-trimethyl-2-oxo-2,3-dihydro-indol-1-ylmethyl)-cyclohexyl]-2-methyl-nicotinamide]: the IC50 on CRF-2 is 4.53 µM; on CRF-1, 0.06 µM.
With `Cc1ncc(Cl)cc1C(=O)N[C@H]1CC[C@H](CN2C(=O)C(C)(C)c3ccccc32)CC1` [Example 1.3, Trans-5-chloro-N-[4-(3,3-dimethyl-2-oxo-2,3-dihydro-indol-1-ylmethyl)-cyclohexyl]-2-methyl-icotinamide], the figures for the half-maximal inhibitory concentration (IC50) against CRF-2 and against CRF-1 were 3.8 µM and 0.048 µM, respectively.
For `Cc1ncc(Cl)cc1C(=O)N[C@H]1CC[C@H](CN2C(=O)C3(CC3)c3cc(F)ccc32)CC1` [Example 2.6, Trans-5-chloro-N-[-4-((5′-fluoro-2′-oxospiro[cyclopropane-1,3′-indoline]-1′-yl)methyl)cyclohexyl]-2-methyl nicotinamide], the values for the IC50 against CRF-2 and against CRF-1 were 0.811 µM and 0.012 µM, respectively.
In the same order, the values of `Cc1ncc(Cl)cc1C(=O)N[C@H]1CC[C@H](CN2C(=O)C(C)(C)c3cccc(Cl)c32)CC1` [Example 2.15, Trans-5-Chloro-N-[4-(7-chloro-3,3-dimethyl-2-oxo-2,3-dihydro-indol-1-ylmethyl)-cyclohexyl]-2-methyl-nicotinamide] are 0.936 µM and 0.017 µM.
In the same order, the values of `COc1cccc2c1N(C[C@H]1CC[C@H](NC(=O)c3cc(C(F)(F)F)ccc3Cl)CC1)C(=O)C2(C)C` [Example 2.18, Trans-2-Chloro-N-[4-(7-methoxy-3,3-dimethyl-2-oxo-2,3-dihydro-indol-1-ylmethyl)-cyclohexyl]-5-trifluoromethyl-benzamide] are 1.68 µM and 0.05 µM.
In the same order, the values of `Cc1ncc(Cl)cc1C(=O)N[C@H]1CC[C@H](CN2C(=O)[C@@](C)(F)c3ccccc32)CC1` [Example 2.20, Trans-5-Chloro-N-[4-((S)-3-fluoro-3-methyl-2-oxo-2,3-dihydro-indol-1-ylmethyl)-cyclohexyl]-2-methyl-nicotinamide] are 4.59 µM and 0.062 µM.
On to `Cc1cccc2c1N(C[C@H]1CC[C@H](NC(=O)c3cc(C(F)(F)F)ccc3Cl)CC1)C(=O)C2(C)C` [Example 2.23, Trans-2-Chloro-5-trifluoromethyl-N-[4-(3,3,7-trimethyl-2-oxo-2,3-dihydro-indol-1-ylmethyl)-cyclohexyl]-benzamide], for which the IC50 against CRF-2 was found to be 2.14 µM; against CRF-1, 0.057 µM.
In the same order, the values of `Cc1ncc(Cl)cc1C(=O)N[C@H]1CC[C@H](CN2C(=O)C(F)(F)c3ccc(Cl)cc32)CC1` [Example 2.26, Trans-5-Chloro-N-[4-(6-chloro-3,3-difluoro-2-oxo-2,3-dihydro-indol-1-ylmethyl)-cyclohexyl]-2-methyl-nicotinamide] are 3.12 µM and 0.157 µM.
In the same order, the values of `Cc1cccc2c1C(C)(C)C(=O)N2C[C@H]1CC[C@H](NC(=O)c2cc(Cl)cnc2C)CC1` [Example 2.27, Trans-5-Chloro-2-methyl-N-[4-(3,3,4-trimethyl-2-oxo-2,3-dihydro-indol-1-ylmethyl)-cyclohexyl]-nicotinamide] are 4.81 µM and 0.157 µM.
Take `COc1ccc2c(c1)N(C[C@H]1CC[C@H](NC(=O)c3cc(Cl)cnc3C)CC1)C(=O)C2(C)C` [Example 2.28, Trans-5-Chloro-N-[4-(6-methoxy-3,3-dimethyl-2-oxo-2,3-dihydro-indol-1-ylmethyl)-cyclohexyl]-2-methyl-nicotinamide]: the IC50 against CRF-2 is 3.05 µM; against CRF-1, 0.038 µM.
In the same order, the values of `Cc1ncc(Cl)cc1C(=O)N[C@H]1CC[C@H](CN2C(=O)C(C)(C)c3ccc(Cl)cc32)CC1` [Example 2.29, Trans-5-Chloro-N-[4-(6-chloro-3,3-dimethyl-2-oxo-2,3-dihydro-indol-1-ylmethyl)-cyclohexyl]-2-methyl-nicotinamide] are 4.62 µM and 0.014 µM.
In the same order, the values of `CCn1c(=O)n(C[C@H]2CC[C@H](NC(=O)c3cc(Cl)cnc3C)CC2)c2ccccc21` [Example 2.46, Trans-5-Chloro-N-[4-(3-ethyl-2-oxo-2,3-dihydro-benzoimidazol-1-ylmethyl)-cyclohexyl]-2-methyl-nicotinamide] are 0.256 µM and 0.044 µM.
In the same order, the values of `Cc1ncc(Cl)cc1C(=O)N[C@H]1CC[C@H](Cn2c(=O)n(CC(C)C)c3ccccc32)CC1` [Example 2.47, Trans-5-Chloro-N-[4-(3-isobutyl-2-oxo-2,3-dihydro-benzoimidazol-1-ylmethyl)-cyclohexyl]-2-methyl-nicotinamide] are 0.296 µM and 0.018 µM.
With `Cc1ncc(Cl)cc1C(=O)N[C@H]1CC[C@H](Cn2c(=O)n(C)c3ccccc32)CC1` [Example 2.50, Trans-5-Chloro-2-methyl-N-[4-(3-methyl-2-oxo-2,3-dihydro-benzoimidazol-1-ylmethyl)-cyclohexyl]-nicotinamide], the results for the IC50 at CRF-2 and against CRF-1 were 3.56 µM and 0.086 µM, respectively.
In the same order, the values of `O=C(N[C@H]1CC[C@H](CN2C(=O)Cc3ccc(F)cc32)CC1)c1cc(C(F)(F)F)ccc1Cl` [Example 3.2, Trans-2-Chloro-N-[4-(6-fluoro-2-oxo-2,3-dihydro-indol-1-ylmethyl)-cyclohexyl]-5-trifluoromethyl-bcnzamide] are 3.87 µM and 0.047 µM.
As to `CCn1c(=O)n(C[C@H]2CC[C@H](NC(=O)c3cc(C(F)(F)F)ccc3Cl)CC2)c2ccccc21` [Example 3.4, Trans-2-Chloro-N-[4-(3-ethyl-2-oxo-2,3-dihydro-bcnzoimidazol-1-ylmethyl)-cyclohexyl]-5-trifluoromethyl-benzamide], the IC50 stood at 1.95 µM against CRF-2 and 0.018 µM on CRF-1.
